Data published in patent US20060128702A1, “Heterocyclic and bicyclic compounds, compositions and methods” (priority 2004, published 2006).

Assays:
[1] = tested on: IL-6 (interleukin-6) expression; assay: IL-6 ELISA (inflammation assay in HAECs); format: cell-based; settings: endothelial cell media; TNFα (0.5 ng/mL) or glycated human serum albumin (300 μg/mL), 18-24 h; read-out: IC50, IL-6 enzyme-linked immunosorbent assay
Procedure: (§1) For inflammation assays, human aortic endothelial cells (HAECs) in 96 well plates were washed once with treatment medium (basal medium containing 1% FBS). Cells were treated with an inflammatory agent such as TNFα (0.5 ng/mL) or glycated human serum albumin (US Biologicals) as source of advanced glycation end products (AGEs) (300 μg/mL) for 18-24 h in the presence or absence of specified amount of compound. Cell supernatants were collected and used for measuring MCP-1 (monocyte chemoattractant protein 1) or IL-6 (interleukin-6) expression by ELISA. Cell layers were washed and used for determining vascular cell adhesion molecule-1 (VCAM-1) expression.
IL-6 expression in endothelial cell media were determined using DuaSet IL-6 ELISA kit from R&D Systems (Cat No DY206) as described by the manufacturer. Mouse anti-human IL-6 antibody was used as the capture antibody and biotinylated goat anti-human IL-6 was used as detection antibody. Culture medium was incubated with the capture antibody (in 96-well plate) for 2 h at room temperature. Wells were washed three times with wash buffer (0.05% Tween-20 in PBS) followed by incubation with detection antibody for 2 h at room temperature. The wells were then incubated with streptavidin HRP and color development was read at 450 nm in a microplate reader.

[2] = tested on: MCP-1 (monocyte chemoattractant protein 1) expression; assay: MCP-1 ELISA (inflammation assay in HAECs); format: cell-based; settings: Endothelial cell; HAEC supernatants; TNFα (0.5 ng/mL) or glycated human serum albumin (300 μg/mL), 18-24 h; read-out: IC50, MCP-1 enzyme-linked immunosorbent assay
Procedure: as §1
MCP-1 ELISA was carried out using Quantikine Human MCP-1 kit as described by the manufacturer (R&D Systems, Inc.). Mouse anti-human MCP-1 was used as the capture antibody and HRP (horse radish peroxidase)-conjugated goat anti-human MCP-1 antibody was used as detection antibody. Culture medium was incubated with the capture antibody (in 96-well plate) for 2 h at room temperature. Wells were washed three times with wash buffer (0.05% Tween-20 in PBS) followed by incubation with detection antibody for 2 h at room temperature. Color development was read at […] in a microplate reader.

[3] = tested on: human aortic smooth muscle cells; assay: Smooth muscle cell proliferation assay; format: cell-based; settings: human aortic SMC, growth medium containing serum, 24 h post treatment; for IC50: read-out: Effect: concentration giving 50% inhibition of smooth muscle cell proliferation
Procedure: Primary cultures of human aortic smooth muscle cells were obtained from Clonetics. SMC were initially grown in T-75 flasks prior to seeding in 96 well plates. The 96-well plates were seeded with 4000 cells/well. The following day cells were washed with serum free medium and left in serum free media for 24 hours for serum starvation. The next day cells received growth medium containing serum with or without compound. The 24 h post treatment cell proliferation was assayed either assessing the incorporation of radiolabeled thymidine to DNA or using a non-radioactive cell proliferation kit from Promega (CellTiter AQ).

[4] = tested on: vascular cell adhesion molecule-1 (VCAM-1) expression; assay: VCAM-1 ELISA (inflammation assay in HAECs); format: cell-based; settings: HAEC cell layers; TNFα (0.5 ng/mL) or glycated human serum albumin (300 μg/mL), 18-24 h; read-out: IC50, VCAM-1 enzyme-linked immunosorbent assay
Procedure: as §1
The cells were fixed cells with 100% methanol for 10 min at room temperature. The methanol was removed and the plate was air-dried. 100 μl of 1:1000 diluted primary antibody (polyclonal goat anti-human VCAM-1—R&D Systems #BBA19) was then added and incubated for 2 h at 37 C. The cells were washed with PBS and 100 μl of 1:5000 dilution of secondary antibody (rabbit anti-goat IgG-HRP—Zymed #81-1620) was added and incubated for 1 h at room temperature. Cells were washed and 100 μl of substrate solution (R&D Systems# DY999) was added and incubated for 20 min in the dark at room temp. 50 μl of stop solution (2N sulfuric acid) was added to the wells and absorbency at 450 nm was noted.

melting point [°C] | IC50 [2] [nM] | IC50 [4] [nM] | Compound | also measured
280 to 282 | – | – | COc1ccc(Nc2cc(-c3ccncc3)nc3ccccc23)cc1Cl [E 1, (3-Chloro-4-methoxy-phenyl)-(2-pyridin-4-yl-quinolin-4-yl)-amine] | –
280 to 282 | – | – | Oc1ccc(-c2nc(-c3ccncc3)nc3ccccc23)c(O)c1 [E 3, 4-(2-Pyridin-4-yl-quinazolin-4-yl)-benzene-1,3-diol] | –
178 to 180 | – | – | Oc1ccc(-c2nc(-c3ccccc3)nc3ccccc23)c(O)c1 [E 4, 4-(2-Phenyl-quinazolin-4-yl)-benzene-1,3-diol] | –
100 to 102 | – | – | c1ccc(-c2cc(-n3ccc4ccccc43)c3ccccc3n2)cc1 [E 9, 4-Indol-1-yl-2-phenyl-quinoline] | –
148 to 150 | – | – | Clc1ccc2c(ccn2-c2cc(-c3ccccc3)nc3ccccc23)c1 [E 10, 4-(5-Chloro-indol-1-yl)-2-phenyl-quinoline] | –
194 to 196 | – | – | CS(=O)(=O)c1ccc(-c2cc(-n3ccc(C(F)(F)F)n3)c3ccccc3n2)cc1 [E 17, 2-(4-Methanesulfonyl-phenyl)-4-(3-trifluoromethyl-pyrazol-1-yl)-quinoline] | –
194 to 196 | 9000 | 8100 | CS(=O)(=O)c1ccc(Nc2cc(-n3ccc(C(F)(F)F)n3)c3ccccc3n2)cc1 [E 23, (4-Methanesulfonyl-phenyl)-[4-(3-trifluoromethyl-pyrazol-1-yl)-quinolin-2-yl]-amine] | –

Continued, compound first:

Compound | melting point [°C] | IC50 [2] [nM] | IC50 [4] [nM] | also measured
COc1ccc(Nc2nc(-c3ccncc3)nc3ccccc23)cc1Cl [E 2, (3-Chloro-4-methoxy-phenyl)-(2-pyridin-4-yl-quinazolin-4-yl)-amine] | > 220 | – | – | –
COc1ccc(Nc2cc(-c3ccccc3)nc3ccccc23)cc1Cl [E 5, (3-Chloro-4-methoxy-phenyl)-(2-phenyl-quinolin-4-yl)-amine] | 272 to 274 | – | – | IC50 [1]: 2000 nM
COc1ccc(Nc2nc(-c3ccc(F)cc3)cc3ccc(C)cc23)cc1Cl [E 6, (3-Chloro-4-methoxy-phenyl)-[3-(4-fluoro-phenyl)-7-methyl-isoquinolin-1-yl]-amine] | 154 to 156 | – | – | –
COc1ccc(Nc2nc(-c3ccc(F)cc3)cc3ccc(C)cc23)cc1F [E 7, (3-Fluoro-4-methoxy-phenyl)-[3-(4-fluoro-phenyl)-7-methyl-isoquinolin-1-yl]-amine] | 163 to 165 | 5000 | – | –
COc1ccc(Nc2cc(-c3ccc(F)cc3)nc3ccccc23)cc1Cl [E 8, (3-Chloro-4-methoxy-phenyl)-[2-(4-fluoro-phenyl)-quinolin-4-yl]-amine] | 260 | 2100 | 3600 | inhibition at 1 µM ([3]; at 1 μM, read-out: Effect: % inhibition of smooth muscle cell proliferation): 77%
Fc1ccc(-c2cc(-n3ccc(C(F)(F)F)n3)c3ccccc3n2)cc1 [E 11, 2-(4-Fluoro-phenyl)-4-(3-trifluoromethyl-pyrazol-1-yl)-quinoline] | – | – | – | IC50 [3]: 1000 nM
COc1cc(Nc2cc(-c3ccc(F)cc3)nc3ccccc23)ccc1Cl [E 13, (4-Chloro-3-methoxy-phenyl)-[2-(4-fluoro-phenyl)-quinolin-4-yl]-amine] | 274 to 276 | 5000 | 3500 | –
FC(F)(F)c1ccn(-c2cc(-c3ccc4c(c3)OCO4)nc3ccccc23)n1 [E 15, 2-Benzo[1,3]dioxol-5-yl-4-(3-trifluoromethyl-pyrazol-1-yl)-quinoline] | 98 to 100 | 4200 | 5000 | –
CSc1ccc(-c2cc(-n3ccc(C(F)(F)F)n3)c3ccccc3n2)cc1 [E 16, 2-(4-Methylsulfanyl-phenyl)-4-(3-trifluoromethyl-pyrazol-1-yl)-quinoline] | 116 to 118 | – | – | IC50 [3]: 1160 nM
FC(F)(F)Oc1ccc(-c2cc(-n3ccc(C(F)(F)F)n3)c3ccccc3n2)cc1 [E 18, 2-(4-Trifluoromethoxy-phenyl)-4-(3-trifluoromethyl-pyrazol-1-yl)-quinoline] | 108 to 110 | – | – | IC50 [3]: 2330 nM
FC(F)(F)Oc1ccc(Nc2cc(-n3ccc(C(F)(F)F)n3)c3ccccc3n2)cc1 [E 19, (4-Trifluoromethoxy-phenyl)-[4-(3-trifluoromethyl-pyrazol-1-yl)-quinolin-2-yl]-amine] | 128 to 130 | 1000 | 1000 | –
FC(F)(F)c1ccn(-c2cc(N3CCOCC3)nc3ccccc23)n1 [E 20, 2-Morpholin-4-yl-4-(3-trifluoromethyl-pyrazol-1-yl)-quinoline] | 118 to 120 | – | – | –
CNS(=O)(=O)c1ccc(Nc2cc(-n3ccc(C(F)(F)F)n3)c3ccccc3n2)cc1 [E 21, N-Methyl-4-[4-(3-trifluoromethyl-pyrazol-1-yl)-quinolin-2-ylamino]-benzenesulfonamide] | 220 to 222 | 430 | 610 | –
CNC(=O)c1ccc(Nc2cc(-n3ccc(C(F)(F)F)n3)c3ccccc3n2)cc1 [E 22, N-Methyl-4-[4-(3-trifluoromethyl-pyrazol-1-yl)-quinolin-2-ylamino]-benzamide] | 250 to 252 | 750 | 2100 | –
